Source: patent US20230066946A1, “1,5-DIPHENYLPYRAZOLYL-3-OXYALKYL ACIDS AND 1-PHENYL-5-THIENYLPYRAZOLYL-3-OXYALKYL ACIDS AND THE USE THEREOF FOR CONTROL OF UNWANTED PLANT GROWTH” (Bayer Aktiengesellschaft, priority 2019, published 2023)

Experiments:
STEME [1] = assay: Pre-emergence herbicidal action against STEME; assay type: in vivo, Stellaria media; settings: 1280 g/ha, scored visually after about 3 weeks vs untreated controls
Source text: (§1) Seeds of mono- and dicotyledonous weed plants are placed in plastic pots in sandy loam soil (doubly sown with one species each of mono- or dicotyledonous weed plants per pot) and covered with soil. The compounds of the invention, formulated in the form of wettable powders (WP) or as emulsion concentrates (EC), are then applied onto the surface of the covering soil as aqueous suspension or emulsion with addition of 0.5% additive at a water application rate equivalent to 600 litres per hectare. After the treatment, the pots are placed in a greenhouse and kept under good growth conditions for the trial plants. After about 3 weeks, the effect of the preparations is scored visually in comparison with untreated controls as percentages. For example, 100% activity=the plants have died, 0% activity=like control plants. [table] Tables 4.1-4.15 below show the effects of selected compounds of the general formula (I) according to Tables 1 to 3 on various harmful plants at an application rate corresponding to 1280 or 320 g/ha, which have been obtained by the aforementioned experimental method.

SETVI [2] = assay: Post-emergence herbicidal action against SETVI; assay type: in vivo, Setaria viridis; settings: 1280 g/ha, post-emergence at one-leaf stage, rated visually after about 3 weeks vs untreated controls
Protocol: (§2) [table] Seeds of mono- and dicotyledonous weed plants are placed in plastic pots in sandy loam soil (twin sowing with one species each of mono- or dicotyledonous weed plants per pot), covered with soil and cultivated in a greenhouse under controlled growth conditions. 2 to 3 weeks after sowing, the test plants are treated at the one-leaf stage. The compounds of the invention, formulated in the form of wettable powders (WP) or as emulsion concentrates (EC), are applied to the green parts of the plants as aqueous suspension or emulsion with addition of 0.5% additive at a water application rate equivalent to 600 litres per hectare. After the test plants have been kept in the greenhouse under optimum growth conditions for about 3 weeks, the activity of the preparations is rated visually in comparison to untreated controls. For example, 100% activity=the plants have died, 0% activity=like control plants. Tables 5.1-5.16 below show the effects of selected compounds of the general formula (I) according to Tables 1 to 3 on various harmful plants at an application rate corresponding to 1280 or 320 g/ha, which have been obtained by the aforementioned experimental method.

SETVI [3] = assay: Pre-emergence herbicidal action against SETVI; assay type: in vivo, Setaria viridis; settings: 1280 g/ha, scored visually after about 3 weeks vs untreated controls
Source text: as §1

MATIN = assay: Post-emergence herbicidal action against MATIN; assay type: in vivo, Matricaria inodora; settings: 1280 g/ha, visual rating about 3 weeks after treatment
Protocol: as §2

ECHCG = assay: Pre-emergence herbicidal action against ECHCG; assay type: in vivo, Echinochloa crus-galli; settings: scored visually after about 3 weeks vs untreated controls, 100% = plants have died, 0% = like control plants
Source text: as §1

STEME [4] = assay: Post-emergence herbicidal action against STEME; assay type: in vivo, Stellaria media; settings: 1280 g/ha, visual rating about 3 weeks after treatment
Protocol: as §2

AMARE [5] = assay: Pre-emergence herbicidal action against AMARE; assay type: in vivo, Amaranthus retroflexus; settings: 1280 g/ha, scored visually after about 3 weeks vs untreated controls
Source text: as §1

AMARE [6] = assay: Post-emergence herbicidal action against AMARE; assay type: in vivo, Amaranthus retroflexus; settings: 1280 g/ha, visual rating about 3 weeks after treatment
Protocol: as §2

Structure (SMILES) | Pre-emergence action against STEME in % (STEME [1]) [%] | Post-emergence action against SETVI in % (SETVI [2]) [%] | Pre-emergence action against SETVI in % (SETVI [3]) [%] | Post-emergence action against MATIN in % (MATIN) [%] | Pre-emergence action at 1280 g/ha against ECHCG in % (ECHCG) [%] | Post-emergence action against STEME in % (STEME [4]) [%] | Pre-emergence action against AMARE in % (AMARE [5]) [%] | Post-emergence action against AMARE in % (AMARE [6]) [%]
COC(=O)C(C)Oc1nn(-c2ccccc2)c(-c2ccc(F)cc2)c1Cl (centres unmarked) [I-145] | 100 | 90 | 100 | 90 | 100 | 100 | 90 | –
CC(Oc1nn(-c2ccccc2F)c(-c2ccc(F)c(F)c2)c1Br)C(=O)O (centres unmarked) [I-168] | 100 | – | – | 90 | 90 | 100 | 100 | –
C=C(C)CNC(=O)COc1nn(-c2ccccc2F)c(-c2ccccc2)c1Br [III-001] | 100 | 100 | 100 | – | 90 | – | – | 100
O=C(COc1nn(-c2ccccc2)c(-c2ccc(F)cc2)c1Br)NCC1CC1 [III-005] | 100 | – | 100 | – | 100 | – | 90 | –
C#CCNC(=O)COc1nn(-c2ccc(F)cc2)c(-c2cccc(F)c2)c1Br [III-016] | 100 | – | 100 | – | 100 | – | 100 | 90
C#CCNC(=O)COc1nn(-c2ccc(F)cc2)c(-c2cccc(F)c2)c1Cl [III-023] | 100 | 100 | 100 | – | 90 | – | 90 | –
O=C(COc1nn(-c2ccc(F)cc2)c(-c2cccc(F)c2)c1Cl)NC1CC1 [III-024] | 100 | – | 100 | – | 90 | – | 100 | –
COC(=O)CCNC(=O)COc1nn(-c2ccc(F)cc2)c(-c2cccc(F)c2)c1Cl [III-026] | – | 100 | 90 | 90 | – | – | 90 | 90
CCOC(=O)CCNC(=O)COc1nn(-c2cccc(F)c2)c(-c2ccccc2)c1Br [III-033] | 100 | 100 | 100 | – | 90 | – | 90 | 90
C=CCNC(=O)COc1nn(-c2c(F)cccc2F)c(-c2ccc(F)c(F)c2)c1Br [III-054] | – | 100 | 90 | – | – | – | 90 | –
C=CCNC(=O)COc1nn(-c2ccccc2F)c(-c2ccc(F)c(F)c2)c1[N+](=O)[O-] [III-066] | 90 | 100 | 90 | – | – | – | 90 | –
C=CCNC(=O)COc1nn(-c2c(F)cccc2F)c(-c2ccc(F)c(F)c2)c1Cl [III-068] | 90 | 90 | 100 | 90 | 100 | – | 90 | –
